Assay results from US20240180805A1, “COMPOSITION FOR INHIBITING WRINKLE” (YUKI GOSEI KOGYO CO., LTD., priority 2022, published 2024).

Tested on: hyaluronic acid synthase (HAS2)
Conditions: β-alanine 10 mM added twice, 24 h apart; total 48 h; relative to β-actin (ΔΔCt); FIG. 1

NCCC(=O)O [β-alanine]
mRNA of hyaluronic acid synthase in dermal fibroblasts: increased
